SMILES strings stand for the structures. Residues, ends and D or L forms follow the SMILES beside them. *: point of attachment. Cbz = O=C(OCc1ccccc1)*

The text below walks through data of patent US5158970A, “Proline derivatives” (Kabushiki Kaisha Yakult Honsha, priority 1989, dated 1992).

In assay [1] the target is prolylendopeptidase (Elizabethkingia meningoseptica, UniProt P27028). Put plainly: biochemical. Format: biochemical. As to conditions: substrate 2.5 mM Z-glycyl-proline-β-naphthylamide; pH 7.0; 35° C. for 10 minutes; read-out: inhibition constant (Ki). The protocol: The compounds of the invention obtained in the foregoing Examples were assayed for their prolylendopeptidase inhibition activity. This assay for prolylendopeptidase inhibition was carried out in accordance with the method of Yoshimoto and Tsuru (Yoshimoto, T. and Tsuru, D., Agr. Biol. Chem. Vol. 42, 2417, 1978). The corresponding number of test tubes to the number of the compounds to be tested were prepared and 2.5 mM Z-glycyl-proline-β-naphthylamide (0.25 ml), 0.1 M phosphate buffer (pH 7.0, 0.99 ml) and a solution of one of the peptides of the invention (0.1 ml) were placed in each test tube and warmed at 37° C. for 3 minutes. 0.1 ml of solution of propylendopeptidase (0.2 unit/ml) was added to each test tube. After reaction at 35° C. for 10 minutes, 1 M acetate buffer containing Triton X-100 (pH 4.0) was added to a final concentration of 10% and after the mixture was left to stand at room temperature for 15 minutes the absorbance (a) at 410 nm was measured.
The above-mentioned procedure was followed in the same manner but using buffers only in place of the solution of each compound of the invention, and the absorbance (b) was measured.

In assay [2] the test system is scopolamine-induced amnesia. Briefly: step-down passive avoidance test, anti-amnestic activity on scopolamine-induced amnesia. Format: in vivo, male rats of Wister strain. Conditions: scopolamine 0.5 mg/kg i.p., retention 24 hours after acquisition, relative to scopolamine-treated group. The text has this: A step-down passive avoidance test on rats was used as the method of assay for anti-amnestic activity to estimate the preventive effect of prolylendopeptidase inhibitors on scopolamine-induced amnesia. This method of assay involved application of electric shocks to animals upon their stepping down on a grid floor to see whether they have learned that such shocks can be avoided by staying on a platform. A passive avoidance test chamber used in this experiment was comprised of an electrifiable grid floor (20 cm in length and 22 cm in width) and a platform (20 cm in length, 15 cm in width and 5 cm in height) placed at the right back corner thereof.
5-Weeks-old male rats of Wister strain weighing 100-150 g (purchased from Japan Clea Co., Ltd.) were used in the test.
Each test compound used in the doses indicated in Tables 2-3 was dissolved or suspended in 4% gum arabic-containing distilled water (1 ml) and administered p.o. one hour before the commencement of acquisition trial. In addition, scopolamine hydrobromide dissolved in saline (0.5 ml) was intraperitoneally administered in a dose of 0.5 mg/kg 30 minutes before the acquisition trial to prepare experimental animal models of amnesia.
In the acquisition trial, the rat was placed on the platform in the test chamber and, when the animal stepped down on the grid floor, the electric current of 5.0 mA was immediately sent to the grid floor continuously until the animal went up on the platform If the rat having gone up on the platform stayed there for more than 30 seconds, the animal was regarded to have learned the situation and taken out of the test chamber. A total time of measurement in the acquisition trial was limited to 300 seconds as maximum, and the time elapsing until the rat learned the situation was measured. In order to avoid any significant difference in the rats, those which took more than 300 seconds for the learning were excluded from the experiment.
The retention trial was carried out 24 hours after the acquisition trial. In this trial, the rat was placed again on the platform in the test chamber, the time elapsing until the animal stepped down onto the grid floor (the step-down latency) was measured.
In each of these tables they are indicated as relative step-down latency, shown by each test compound-treated group in the retention trial, to step-down latency for scopolamine-treated group (i.e. test compound-treated group's step-down latency/scopolamine-treated group's step-down latency).

Assay [3] concerns proline endopeptidase. Conditions: prior art; cited from earlier work.
For assay [4] the following is noted: prior art; cited from earlier work.
Where [5] appears, read: Table 2, 5 mg/kg p.o., **p < 0.01 (Mann-Whitney).

prolylendopeptidase, sequence (P27028 21-705): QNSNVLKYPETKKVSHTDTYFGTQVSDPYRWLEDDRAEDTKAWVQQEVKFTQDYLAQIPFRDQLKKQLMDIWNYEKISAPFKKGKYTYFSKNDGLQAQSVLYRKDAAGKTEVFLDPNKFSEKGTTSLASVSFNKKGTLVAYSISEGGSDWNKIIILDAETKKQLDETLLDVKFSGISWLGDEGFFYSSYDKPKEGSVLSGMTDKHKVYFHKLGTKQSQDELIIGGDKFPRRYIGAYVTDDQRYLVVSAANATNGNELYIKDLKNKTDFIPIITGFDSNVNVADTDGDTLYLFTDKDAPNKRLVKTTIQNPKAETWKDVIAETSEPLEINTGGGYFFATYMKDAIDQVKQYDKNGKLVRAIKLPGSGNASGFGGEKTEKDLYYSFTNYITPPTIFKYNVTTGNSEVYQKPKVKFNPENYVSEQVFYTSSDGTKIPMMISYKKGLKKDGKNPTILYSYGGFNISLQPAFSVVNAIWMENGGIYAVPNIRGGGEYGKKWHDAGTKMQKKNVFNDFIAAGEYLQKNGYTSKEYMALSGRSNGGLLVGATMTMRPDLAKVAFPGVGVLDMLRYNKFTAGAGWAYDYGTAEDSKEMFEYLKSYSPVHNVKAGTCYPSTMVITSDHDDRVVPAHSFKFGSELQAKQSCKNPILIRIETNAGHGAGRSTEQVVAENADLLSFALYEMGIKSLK

With `CCOC(OCC)[C@@H]1CCCN1C(=O)[C@@H]1CCCN1C(=O)OCc1ccccc1` [Example 8, N-benzyloxycarbonyl-L-prolyl-L-prolinal diethyl acetal], the Ki (usually the dissociation constant of the complex between target and ligand, obtained from inhibition or displacement) in assay [1] was 2.2 µM. In addition, the “Relative step-down latency in retention trial (mean ± S.E.)” value (shortened to “Relative step-down latency”) in assay [2] (Table 2, 1 mg/kg p.o.) was 2.0 ± 0.5; in assay [2] (setting [5]), 0.9 ± 0.2; in assay [2] (Table 2, 25 mg/kg p.o.), 1.2 ± 0.3; in assay [2] (Table 2, 50 mg/kg p.o.) it was 0.7 ± 0.3; in assay [2] (Table 2, 100 mg/kg p.o.), 0.6 ± 0.3.

With `CCOC(OCC)[C@@H]1CCCN1C(=O)[C@@H]1CCCN1C(=O)CCC(=O)O` [Example 12, N-succinyl-L-prolyl-L-prolinal diethyl acetal], the Ki in assay [1] is 370 µM.

As to `CCOC(OCC)[C@@H]1CCCN1C(=O)CN(C)C(=O)CCC(=O)O` [Example 14, N-succinyl-sarcosyl-L-prolinal diethyl acetal], the Ki in assay [1] is 1000 µM.

As for `CCOC(OCC)[C@@H]1CCCN1C(=O)[C@@H]1CCC(=O)N1C(=O)CCC(=O)O` [Example 16, N-succinyl-L-pyroglutamyl-L-prolinal diethyl acetal], the Ki in assay [1] was found to be 1000 µM.

As for `O=C[C@@H]1CCCN1C(=O)[C@@H]1CCCN1C(=O)OCc1ccccc1` [ZPP, Benzyloxycarbonyl-L-prolyl-L-prolinal] (Cbz-Pro-Pro-aldehyde), the “Relative step-down latency” value stood at 2.8 ± 1.3 in assay [2] (Table 2, 1 mg/kg p.o.); 8.5 ± 1.6 in assay [2] (setting [5]); 1.4 ± 0.8 in assay [2] (Table 2, 25 mg/kg p.o.); 0.5 ± 0.1 in assay [2] (Table 2, 50 mg/kg p.o.); 1.3 ± 0.8 in assay [2] (Table 2, 100 mg/kg p.o.). In assay [3], the “inhibitory activity to proline endopeptidase” value was “inhibitory activity to proline endopeptidase”. Besides, in assay [4], the anti-amnestic action result was “anti-amnestic action”.

Consider `COc1ccc(C(=O)N2CCCC2=O)cc1` [aniracetam], for which the “Relative step-down latency” value amounted to 1.1 ± 0.4 in assay [2] (Table 3, 12.5 mg/kg p.o.); 1.6 ± 0.6 in assay [2] (Table 3, 25 mg/kg p.o.); 2.3 ± 0.6 in assay [2] (Table 3, 50 mg/kg p.o., *p < 0.05 (Mann-Whitney)); 0.7 ± 0.3 in assay [2] (Table 3, 100 mg/kg p.o.).
